# Measurements as given in patent publication US10183944B2 (Asana Biosciences, LLC, priority 2011, dated 2019).
# How the values were obtained:
# [1] = target: Syk (356-635 amino acids) catalytic domain (Homo sapiens (Human), UniProt P43405); assay: Inhibition of enzymatic Syk kinase activity (radiometric); format: biochemical; settings: read-out: IC50 Syk
# How it was run: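 Human Syk (356-635) kinase domain (0.035–7.5 ng/reaction) preincubated with compound 30 minutes at room temperature, then reacted with pG4T substrate, 100 μM ATP (stock) and γ-32P-ATP for 10 minutes at 30° C. Reaction stopped with HCl/ATP, spotted on P81 paper, washed and counted by scintillation. Percent inhibition versus no-compound counts.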
# JAK2 = JAK2 (Homo sapiens (Human), UniProt O60674); assay: Inhibition of enzymatic JAK2 kinase activity (TR-FRET); format: biochemical; settings: read-out: IC50 JAK
# How it was run: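 Enzyme preincubated with compound 30 min at RT, then Ulight-poly-GT substrate and ATP added for 60 min at RT. EDTA stop, Eu-antiphosphotyrosine antibody; TR-FRET ratio 665/615 nm (ex 340 nm), blank-corrected; % inhibition versus positive control.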
# Sequence of JAK2 (O60674 808-1132): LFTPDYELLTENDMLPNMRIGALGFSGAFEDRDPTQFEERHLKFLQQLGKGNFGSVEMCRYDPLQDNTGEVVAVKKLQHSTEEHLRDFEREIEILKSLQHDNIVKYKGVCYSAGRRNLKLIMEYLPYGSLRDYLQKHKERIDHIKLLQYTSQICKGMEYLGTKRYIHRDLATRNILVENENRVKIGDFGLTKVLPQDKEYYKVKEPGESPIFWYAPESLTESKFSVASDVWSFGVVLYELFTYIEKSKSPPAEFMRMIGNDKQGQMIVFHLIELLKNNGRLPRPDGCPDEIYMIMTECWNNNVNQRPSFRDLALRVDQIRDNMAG
IC50 [1],IC50 (JAK2),SMILES
< 50 nM,< 50 nM,"Cl.O=c1[nH]ncc2nc(-c3ccccc3)nc(Nc3ccc(CN4CCNCC4)cc3)c12 [Example 7, 2-phenyl-4-(4-(piperazin-1-ylmethyl)phenylamino)pyrimido[4,5-d]pyridazin-5(6H)-one hydrochloride]"
< 10 nM,< 10 nM,"O=C(O)C1CC12CCN(c1ccc(Nc3nc(N4CCCCCC4)nc4cn[nH]c(=O)c34)cc1)CC2 (centres unmarked) [Example 62, 6-(4-((2-(azepan-1-yl)-5-oxo-5,6-dihydropyrimido[4,5-d]pyridazin-4-yl)amino)phenyl)-6-azaspiro[2.5]octane-1-carboxylic acid]"
< 10 nM,< 10 nM,"O=C(O)CC1CCN(c2ccc(Nc3nc(N4CCCCCC4)nc4cn[nH]c(=O)c34)cn2)CC1 [Example 108, 2-(1-(5-((2-(azepan-1-yl)-5-oxo-5,6-dihydropyrimido[4,5-d]pyridazin-4-yl)amino)pyridin-2-yl)piperidin-4-yl) acetic acid]"

# More lines, now with the values behind:
SMILES,IC50 [1],IC50 (JAK2)
"O=C(O)C1CCN(c2ccc(Nc3nc(-c4ccccc4)nc4cn[nH]c(=O)c34)cc2)CC1 [Example 13, 1-(4-(5-oxo-2-phenyl-5,6-dihydropyrimido[4,5-d]pyridazin-4-ylamino)phenyl)piperidine-4-carboxylic acid]",< 50 nM,< 10 nM
"O=C(O)C1CC12CCN(c1ccc(Nc3nc(-c4ccccc4)nc4cn[nH]c(=O)c34)cc1)CC2 (centres unmarked) [Example 19, 6-(4-(5-oxo-2-phenyl-5,6-dihydropyrimido[4,5-d]pyridazin-4-ylamino)phenyl)-6-azaspiro[2.5]octane-1-carboxylic acid]",< 50 nM,< 10 nM
"N#CCC1CCN(c2nc(Nc3ccc(N4CCC(O)CC4)cc3)c3c(=O)[nH]ncc3n2)CC1 [Example 189, 2-(1-(4-((4-(4-hydroxypiperidin-1-yl)phenyl)amino)-5-oxo-5,6-dihydropyrimido[4,5-d]pyridazin-2-yl)piperidin-4-yl)acetonitrile]",< 10 nM,< 50 nM
"N#CCC1CCN(c2nc(Nc3ccc(N4CCN(CCO)CC4)cc3)c3c(=O)[nH]ncc3n2)CC1 [Example 191, 2-(1-(4-((4-(4-(2-hydroxyethyl)piperazin-1-yl)phenyl)amino)-5-oxo-5,6-dihydropyrimido[4,5-d]pyridazin-2-yl)piperidin-4-yl)acetonitrile]",< 10 nM,< 10 nM
